{"source": "patent US9408853B2", "about": "“Iridium/rhodium anti-cancer compounds” (University of Warwick, priority 2010, dated 2016)", "key": {"[1]": {"test": "Kinetics of hydrolysis followed by 1H NMR", "assay_type": "physicochemical", "details": "for k (hydrolysis): 0.2 mM, 5% MeOD-d4/95% D2O, pH* 3", "procedure": "Kinetics for Hydrolysis. Although complexes ZL01-ZL04, ZL07, ZL38 and ZL43 hydrolyzed too rapidly to monitor by ^1H NMR, The kinetics of hydrolysis for complexes ZL25, ZL33, ZL37 and ZL54 were followed by ^1H NMR at different temperatures. For this, solutions of the complexes with a final concentration of 0.2 mM in 5% MeOD-d4/95% D2O (v/v) were prepared by dissolution of the complexes in MeOD-d4 followed by rapid dilution using D2O with a pH* of about 3 (acidified with HClO4), so that the aqua ligand was not deprotonated. ^1H NMR spectra were taken after various time intervals. The rates of hydrolysis were determined by fitting plots of concentrations (determined from ^1H NMR peak integrals) versus time to a pseudo first-order equation using ORIGIN version 7.0. The Arrhenius activation energy (Ea), activation enthalpies (ΔH^¢), and activation entropy (ΔS^‡) for compounds ZL25, ZL33, ZL37 and ZL54 were determined from the slopes of the Arrhenius and intercepts of Eyring plots.\nThe rates of hydrolysis of compounds ZL01-ZL04, ZL07, ZL25, ZL33, ZL37, ZL38, ZL43 and ZL54 in a 5% MeOD-d4/95% D2O were monitored by ^1H NMR at different temperature from 278 to 298 K by the observation of new peaks over time due to aqua adduct formation. Five percent MeOD was used to improve solubility, and acidic conditions (D2O, pH* 3) were used to prevent the deprotonation of the aqua complex as a secondary reaction. […] The percentage of aqua peak formation for ZL25, ZL33, ZL37 and ZL54 was plotted against time and was fitted to pseudofirst order kinetics (FIG. 3), and their halflife times were calculated (Table 1). The Arrhenius activation energy (Ea), activation enthalpy (ΔH^¢), and activation entropy (ΔS^‡) of compound ZL25, ZL33, ZL37 and ZL54 are listed in Table 4. The large negative ΔS^‡value for compound ZL54 is notable. The extent of hydrolysis at equilibrium is medium for all compounds, ranged from 30% to 60%."}, "[2]": {"tested_on": "human ovarian A2780 cancer cells", "test": "Cancer cell cytotoxicity, SRB assay", "assay_type": "cell-based", "details": "24 h exposure, 72 h recovery, SRB; read-out: A2780 IC50", "procedure,_shortened": "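Cells plated at 5000/well were dosed on day 3 with Ir^III complexes (0.05–100 μM, from DMSO stocks diluted into saline and medium) for 24 h. After washout they grew for 72 h in fresh medium before SRB protein staining as a survival read-out. Two independent experiments of three replicates each.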"}, "A549 cancer cell line": {"tested_on": "A549 cancer cell line", "test": "Cytotoxicity, MTT assay (Brabec group)", "assay_type": "cell-based", "procedure": "(§1) The cytotoxicity test of ZL07, ZL33, ZL38 and ZL54 against A2780, SW480, A549 and CH1 cell lines was performed by Viktor Brabec group (Institute of Biophysics, Academy of Sciences of the Czech Republic). After plating, the cells were treated with ZL07, ZL33, ZL38 and ZL54. After 72h of incubation 10 μl of MTT (2.5 mg/ml; CALBIOCHEM) was added to each well and incubated for 4 h in culture conditions. At the end of the incubation period the medium was removed and the formazan product was dissolved in 100 μl DMSO. The cell viability was evaluated by measurement of the absorbance at 570 nm, using an Absorbance Reader SUNRICE TECAN SCHOELLER. […] All experiments were made in quadruplicate."}, "CH1 cancer cell line": {"tested_on": "CH1 cancer cell line", "test": "Cytotoxicity, MTT assay (Brabec group)", "assay_type": "cell-based", "procedure": "as §1"}, "SW480 cancer cell line": {"tested_on": "SW480 cancer cell line", "test": "Cytotoxicity, MTT assay (Brabec group)", "assay_type": "cell-based", "procedure": "as §1"}, "[3]": {"tested_on": "ca. 60 cell lines within nine tumour type subpanels", "assay_type": "cell-based", "text": "Six complexes, [(η^5-C5Me4C6H4C6H5)Ir(bpy)Cl]PF6 (ZL25, bpy=2,2′-bipyridine), [(η^5-C5Me4C6H5)Ir(phen)Cl]PF6 (ZL33, phen=1,10-phenanthroline), [(η^5-C5Me4C6H4C6H5) Ir(pico)Cl] (ZL43, pico=picolinate), [(η^5-C5Me5)Ir(2-phpy)Cl] (ZL47), [(η^5-C5Me4C6H4C6H5)Ir(2-phPY)(D2O)Cl] (ZL49) and [(η^5-C5Me4C6H4C6H5) Ir(phen)Cl]PF6 (ZL54), were selected by Developmental Therapeutics Program of National Cancer Institute (NCI, U.S.A.) for in vitro screening test, in which 5 complexes except ZL43 are selected for further testing. The five complexes were tested on ca. 60 cell lines within nine tumour type subpanels at five concentrations ranging from 0.01 to 100 μM."}, "[4]": {"details": "highest test concentration 130 μM"}}, "data": [{"smiles": "Cc1c(C)c(-c2ccccc2)[c-](C)c1C.F[P-](F)(F)(F)(F)F.[Cl-].[Ir+3].c1cnc2c(c1)ccc1cccnc12", "note": "(stereo not drawn) [ZL33, [(η^5-C5Me4C6H5)Ir(phen)Cl]PF6]", "values": [{"measurement": "k (hydrolysis)", "setting": "[1]; 278 K", "value": 0.033, "unit": "min⁻¹"}, {"measurement": "k (hydrolysis)", "setting": "[1]; 283 K", "value": 0.0693, "unit": "min⁻¹"}, {"measurement": "k (hydrolysis)", "setting": "[1]; 288 K", "value": 0.1264, "unit": "min⁻¹"}, {"measurement": "Ea (Arrhenius activation energy of hydrolysis)", "setting": "[1]; from Arrhenius plot", "value": 85.8, "unit": "kJ/mol"}, {"measurement": "ΔH^‡ (activation enthalpy of hydrolysis)", "setting": "[1]; from Eyring plot", "value": 83.94, "unit": "kJ/mol"}, {"measurement": "ΔS^‡ (activation entropy of hydrolysis)", "setting": "[1]; from Eyring plot", "value": 29.3, "unit": "J K^−1mol^−1"}, {"measurement": "IC50", "setting": "[2]", "value": 6.7, "unit": "µM"}, {"measurement": "IC50", "setting": "A549 cancer cell line; 72 h incubation, MTT", "value": "11.5 ± 2.4", "unit": "µM"}, {"measurement": "cytotoxicity towards A549 (in words)", "setting": "A549 cancer cell line; [4]", "value": "promising cytotoxicity"}, {"measurement": "IC50", "setting": "CH1 cancer cell line; 72 h incubation, MTT", "value": "1320 ± 300", "unit": "nM"}, {"measurement": "cytotoxicity towards CH1 (in words)", "setting": "CH1 cancer cell line; [4]", "value": "promising cytotoxicity"}, {"measurement": "IC50", "setting": "SW480 cancer cell line; 72 h incubation, MTT", "value": "1410 ± 200", "unit": "nM"}, {"measurement": "times more active than cisplatin", "setting": "SW480 cancer cell line; SW480", "value": "ca. 6.5 times"}, {"measurement": "cytotoxicity towards SW480 (in words)", "setting": "SW480 cancer cell line; [4]", "value": "promising cytotoxicity"}, {"measurement": "CC50", "setting": "[3]", "value": 93.3, "unit": "µM"}, {"measurement": "Mean graph midpoint (MID) TGI", "setting": "[3]; ca. 60 cell lines, 0.01 to 100 μM", "value": 51.3, "unit": "µM"}, {"measurement": "GI50", "setting": "[3]; ca. 60 cell lines, 0.01 to 100 μM, read-out: Mean graph midpoint (MID) GI50", "value": 10.7, "unit": "µM"}, {"measurement": "selectivity among tumour type subpanels (in words)", "setting": "[3]; mean graphs", "value": "selective for leukemia, CNS cancer, melanoma, and prostate cancer"}]}]}
